Experimental data reported in patent US11786519B2, “Apoptosis-inducing agents for the treatment of cancer and immune and autoimmune diseases” (AbbVie Inc., priority 2011, dated 2023).

What was measured:
Bcl-xL = Bcl-xL (Homo sapiens, UniProt Q07817); test: TR-FRET binding assay, competition with F-Bak for Bcl-xL; conditions: competition with F-Bak probe, GST-Bcl-xL
Procedure: Determination of the utility of compounds having Formula (I) as binders to and inhibitors of anti-apoptotic Bcl-xL proteins was performed using the Time Resolved-Fluorescence Resonance Energy Transfer (TR-FRET) Assay. Tb-anti-GST antibody was purchased from Invitrogen (Catalog No. PV4216).
The measurement of competition of compounds of the invention with F-Bak for a Bcl-2 family protein (Bcl-xL) binding site using a Time Resolved Fluorescence Resonance Energy Transfer (TR-FRET) binding assay:
Test compounds were serially diluted in DMSO starting at 50 µM (2× starting concentration; 10% DMSO) and 10 μL transferred into a 384-well plate.
The samples are then mixed on a shaker for 1 minute then incubated for an additional 2 hours at room temperature. For each assay plate, a probe/antibody and protein/antibody/probe mixture were included as a negative and a positive control, respectively. Fluorescence was measured on the ENVISION plate reader (Perkin Elmer) using a 340/35 nm excitation filter and 520/525 (F-Bak) and 495/510 nm ([…]) emission filters. Dissociation constants (Ki) were determined using Wang's equation (Wang, Z. X. An exact mathematical expression for describing competitive binding of two different ligands to a protein molecule. FEBS Lett. 1995 360:111-114). The TR-FRET assay can be performed in the presence of varying concentrations of human serum (HS) or fetal bovine serum (FBS).

[1] = molecular target: mouse FL5.12 cells transfected with Bcl-xL (Homo sapiens, UniProt Q07817); test: FL5.12 cellular assay (cell viability, CellTiter-Glo); assay type: cell-based; conditions: IL-3-depleted, 3% FBS assay media, 24 hours; read-out: FL5.12 Bcl-xL, −IL3, EC50
Source text: Individual determinations were the result of duplicate values.

Chain of mouse FL5.12 cells transfected with Bcl-xL (Q07817 whole entry, change not shown): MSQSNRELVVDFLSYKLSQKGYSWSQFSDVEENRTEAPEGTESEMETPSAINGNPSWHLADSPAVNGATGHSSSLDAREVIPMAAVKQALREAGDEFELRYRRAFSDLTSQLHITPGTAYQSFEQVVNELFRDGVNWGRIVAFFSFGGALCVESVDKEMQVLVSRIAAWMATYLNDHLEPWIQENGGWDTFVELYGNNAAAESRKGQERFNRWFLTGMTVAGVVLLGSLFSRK
Chain of Bcl-xL (Q07817 whole entry): as the sequence (Q07817 whole entry, change not shown) above

Row | Structure (SMILES) | Ki (Bcl-xL) | EC50 [1]
1 | COCCOCCOC12CC3CC(CC(Cn4ncc(-c5ccc(N6CCc7cccc(C(=O)Nc8nc9ccccc9s8)c7C6)nc5C(=O)O)c4C)(C3)C1)C2 [Example 63, 6-[8-(1,3-benzothiazol-2-ylcarbamoyl)-3,4-dihydroisoquinolin-2(1H)-yl]-3-[1-({3-[2-(2-methoxyethoxy)ethoxy]tricyclo[3.3.1.1^3,7]dec-1-yl}methyl)-5-methyl-1H-pyrazol-4-yl]pyridine-2-carboxylic acid] | < 0.1 nM | 3 nM
2 | Cc1c(-c2ccc(N3CCc4cccc(C(=O)Nc5nc6ccccc6s5)c4C3)nc2C(=O)NS(=O)(=O)C2CC2)cc(C#N)n1CC12CC3CC(CC(C3)C1)C2 [Example 36, N-(1,3-benzothiazol-2-yl)-2-{5-[5-cyano-2-methyl-1-(tricyclo[3.3.1.1^3,7]dec-1-ylmethyl)-1H-pyrrol-3-yl]-6-[(cyclopropylsulfonyl)carbamoyl]pyridin-2-yl}-1,2,3,4-tetrahydroisoquinoline-8-carboxamide] | 0.3 nM | 0.8 nM
3 | Cc1c(-c2ccc(N3CCc4cccc(C(=O)Nc5nc6ccccc6s5)c4C3C)nc2C(=O)O)cnn1CC12CC3CC(CC(C3)C1)C2 (centres unmarked) [Example 43, 6-[8-(1,3-benzothiazol-2-ylcarbamoyl)-1-methyl-3,4-dihydroisoquinolin-2(1H)-yl]-3-[5-methyl-1-(tricyclo[3.3.1.1^3,7]dec-1-ylmethyl)-1H-pyrazol-4-yl]pyridine-2-carboxylic acid] | 0.2 nM | 9 nM
4 | Cc1c(C(=O)NC23CC4CC(CC(C4)C2)C3)cccc1-c1ccc(N2CCc3cccc(C(=O)Nc4nc5ccccc5s4)c3C2)nc1C(=O)O [Example 54, 6-[8-(1,3-benzothiazol-2-ylcarbamoyl)-3,4-dihydroisoquinolin-2(1H)-yl]-3-{2-methyl-3-[tricyclo[3.3.1.1^3,7]dec-1-ylcarbamoyl]phenyl}pyridine-2-carboxylic acid] | 2 nM | > 1000 nM
5 | Cc1c(-c2ccc(N3CCc4cccc(C(=O)Nc5nc6ccccc6s5)c4C3)nc2C(=O)NS(C)(=O)=O)cnn1CC12CC3CC(CC(C3)C1)C2 [Example 17, N-(1,3-benzothiazol-2-yl)-2-{6-[(methylsulfonyl)carbamoyl]-5-[5-methyl-1-(tricyclo[3.3.1.1^3,7]dec-1-ylmethyl)-1H-pyrazol-4-yl]pyridin-2-yl}-1,2,3,4-tetrahydroisoquinoline-8-carboxamide] | < 0.1 nM | 1 nM
6 | O=C(Nc1nc2ccccc2s1)c1cccc2c1CN(c1ccc(-c3cnn(CC4CC5CCC(C4)N5C(=O)OCc4ccccc4)c3)c(C(=O)O)n1)CC2 (centres unmarked) [Example 84, 6-[8-(1,3-benzothiazol-2-ylcarbamoyl)-3,4-dihydroisoquinolin-2(1H)-yl]-3-[1-({8-[(benzyloxy)carbonyl]-8-azabicyclo[3.2.1]oct-3-yl}methyl)-1H-pyrazol-4-yl]pyridine-2-carboxylic acid] | 0.9 nM | > 1000 nM
7 | Cc1c(-c2ccc(N3CCc4cccc(C(=O)Nc5nc6ccncc6s5)c4C3)nc2C(=O)O)cnn1CC12CC3CC(CC(C3)C1)C2 [Example 78, 3-[5-methyl-1-(tricyclo[3.3.1.1^3,7]dec-1-ylmethyl)-1H-pyrazol-4-yl]-6-[8-([1,3]thiazolo[5,4-c]pyridin-2-ylcarbamoyl)-3,4-dihydroisoquinolin-2(1H)-yl]pyridine-2-carboxylic acid] | < 0.1 nM | 3 nM
8 | N#Cc1c(SC23CC4CC(CC(C4)C2)C3)cccc1-c1ccc(N2CCc3cccc(C(=O)Nc4nc5ccccc5s4)c3C2)nc1C(=O)O [Example 48, 6-[8-(1,3-benzothiazol-2-ylcarbamoyl)-3,4-dihydroisoquinolin-2(1H)-yl]-3-{2-cyano-3-[tricyclo[3.3.1.1^3,7]dec-1-ylsulfanyl]phenyl}pyridine-2-carboxylic acid] | 0.2 nM | 8 nM
9 | Cc1c(-c2ccc(N3CCc4cccc(C(=O)Nc5nc6ccccc6s5)c4C3)nc2C(=O)O)cnn1CC12CC3CC(C)(CC(C)(C3)C1)C2 [Example 32, 6-[8-(1,3-benzothiazol-2-ylcarbamoyl)-3,4-dihydroisoquinolin-2(1H)-yl]-3-(1-{[3,5-dimethyltricyclo[3.3.1.1^3,7]dec-1-yl]methyl}-5-methyl-1H-pyrazol-4-yl)pyridine-2-carboxylic acid] | < 0.1 nM | 1 nM
10 | O=C(Nc1nc2ccccc2s1)c1cccc2c1CN(c1ccc(-c3ccnc(OCC45CC6CC(CC(C6)C4)C5)c3)c(C(=O)O)n1)CC2 [Example 25, 6-[8-(1,3-benzothiazol-2-ylcarbamoyl)-3,4-dihydroisoquinolin-2(1H)-yl]-2′-(tricyclo[3.3.1.1^3,7]dec-1-ylmethoxy)-3,4′-bipyridine-2-carboxylic acid] | 0.8 nM | > 1000 nM
11 | Cc1nn(CC23CC4CC(CC(C4)C2)C3)c(C)c1-c1ccc(N2CCc3cccc(C(=O)Nc4nc5ccccc5s4)c3C2)nc1C(=O)O [Example 2, 6-[8-(1,3-benzothiazol-2-ylcarbamoyl)-3,4-dihydroisoquinolin-2(1H)-yl]-3-[3,5-dimethyl-1-(tricyclo[3.3.1.1^3,7]dec-1-ylmethyl)-1H-pyrazol-4-yl]pyridine-2-carboxylic acid] | < 0.1 nM | < 1 nM
12 | Cc1c(-c2ccc(N3CCc4cccc(C(=O)Nc5nc6ccccc6s5)c4C3)nc2C(=O)NS(=O)(=O)C2CC2)cnn1CC12CC3CC(CC(C3)C1)C2 [Example 18, N-(1,3-benzothiazol-2-yl)-2-{6-[(cyclopropylsulfonyl)carbamoyl]-5-[5-methyl-1-(tricyclo[3.3.1.1^3,7]dec-1-ylmethyl)-1H-pyrazol-4-yl]pyridin-2-yl}-1,2,3,4-tetrahydroisoquinoline-8-carboxamide] | < 0.1 nM | 1 nM
13 | COC1(Cn2ncc(-c3ccc(N4CCc5cccc(C(=O)Nc6nc7ccccc7s6)c5C4)nc3C(=O)O)c2C)CCCC2(CC2)C1 (centres unmarked) [Example 79, 6-[8-(1,3-benzothiazol-2-ylcarbamoyl)-3,4-dihydroisoquinolin-2(1H)-yl]-3-{1-[(5-methoxyspiro[2.5]oct-5-yl)methyl]-5-methyl-1H-pyrazol-4-yl}pyridine-2-carboxylic acid] | < 0.1 nM | 0.9 nM
14 | Cc1c(-c2ccc(N3CCc4cccc(C(=O)Nc5nc6cccnc6s5)c4C3)nc2C(=O)O)cnn1CC12CC3CC(CC(C3)O1)C2 [Example 67, 3-[5-methyl-1-(2-oxatricyclo[3.3.1.1^3,7]dec-1-ylmethyl)-1H-pyrazol-4-yl]-6-[8-([1,3]thiazolo[5,4-b]pyridin-2-ylcarbamoyl)-3,4-dihydroisoquinolin-2(1H)-yl]pyridine-2-carboxylic acid] | < 0.1 nM | 9 nM
15 | COCCOCCOCCOC12CC3CC(CC(Cn4ncc(-c5ccc(N6CCc7cccc(C(=O)Nc8nc9ccccc9s8)c7C6)nc5C(=O)O)c4C)(C3)C1)C2 [Example 80, 6-[8-(1,3-benzothiazol-2-ylcarbamoyl)-3,4-dihydroisoquinolin-2(1H)-yl]-3-(1-{[3-{2-[2-(2-methoxyethoxy)ethoxy]ethoxy}tricyclo[3.3.1.1^3,7]dec-1-yl]methyl}-5-methyl-1H-pyrazol-4-yl)pyridine-2-carboxylic acid] | < 0.1 nM | 1 nM
16 | O=C(Nc1nc2ccccc2s1)c1cccc2c1CN(c1ccc(-c3cnn(CC45CC6CC(CC(C6)C4)C5)c3)c(C(=O)O)n1)CC2 [Example 1, 6-[8-(1,3-benzothiazol-2-ylcarbamoyl)-3,4-dihydroisoquinolin-2(1H)-yl]-3-{1-[tricyclo[3.3.1.1^3,7]dec-1-ylmethyl]-1H-pyrazol-4-yl}pyridine-2-carboxylic acid] | < 0.1 nM | 
17 | O=C(Nc1nc2ccccc2s1)c1cccc2c1CN(c1ccc(-c3cnn(CC45CC6CC(CC(C6)C4)C5)c3Cl)c(C(=O)O)n1)CC2 [Example 42, 6-[8-(1,3-benzothiazol-2-ylcarbamoyl)-3,4-dihydroisoquinolin-2(1H)-yl]-3-{5-chloro-1-[tricyclo[3.3.1.1^3,7]dec-1-ylmethyl]-1H-pyrazol-4-yl}pyridine-2-carboxylic acid] | 0.3 nM | 
18 | CNCCOC12CC3(C)CC(C)(CC(Cn4ncc(-c5ccc(N6CCc7cccc(C(=O)Nc8nc9ccccc9s8)c7C6)nc5C(=O)O)c4C)(C3)C1)C2 [Example 82, 6-[8-(1,3-benzothiazol-2-ylcarbamoyl)-3,4-dihydroisoquinolin-2(1H)-yl]-3-[1-({3,5-dimethyl-7-[2-(methylamino)ethoxy]tricyclo[3.3.1.1^3,7]dec-1-yl}methyl)-5-methyl-1H-pyrazol-4-yl]pyridine-2-carboxylic acid] | < 0.1 nM | 
19 | Cc1c(C(=O)N(C)C2C3CC4CC(C3)CC2C4)cccc1-c1ccc(N2CCc3cccc(C(=O)Nc4nc5ccccc5s4)c3C2)nc1C(=O)O (centres unmarked) [Example 64] | < 0.1 nM | 
20 | Cc1c(-c2ccc(N3CCc4cccc(C(=O)Nc5nc6ccccc6s5)c4C3)nc2C(=O)O)cccc1S(=O)(=O)N(C)C1C2CC3CC(C2)CC1C3 (centres unmarked) [Example 69, 6-[8-(1,3-benzothiazol-2-ylcarbamoyl)-3,4-dihydroisoquinolin-2(1H)-yl]-3-(2-methyl-3-{methyl[tricyclo[3.3.1.1^3,7]dec-2-yl]sulfamoyl}phenyl)pyridine-2-carboxylic acid] | 0.6 nM | 
